According to patent publication US20120004244A1, “Bis Aromatic Compounds for Use as LTC4 Synthase Inhibitors” (BIOLIPOX AB, priority 2009, published 2012):

Biological target: T1, Recombinant human LTC4 synthase (Homo sapiens, UniProt Q16873)
T1 construct: made in house; host or cells: Pichia pastoris ('Piccia pastoralis' [sic])
T1 sequence (Q16873 1-150): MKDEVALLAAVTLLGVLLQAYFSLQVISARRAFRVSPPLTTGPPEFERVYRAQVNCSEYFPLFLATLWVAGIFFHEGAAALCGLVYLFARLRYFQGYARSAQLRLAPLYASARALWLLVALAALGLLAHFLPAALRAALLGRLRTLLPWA
Assay: LTC4 synthase in vitro assay (LTA4 to LTC4, HTRF detection)
Format: biochemical
Summary of the method: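 Purified recombinant human LTC4 synthase expressed in Pichia (0.5 μg/mL total protein) was preincubated with inhibitor at 10 μM final for 10 min at room temperature in PBS pH 7.4 with 5 mM GSH. LTA4 was then added at 2.5 μM final, and after 5 min at room temperature LTC4 was detected by HTRF.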

| IC50 | Compound |
| --- | --- |
| 250 nM | CN(c1ccc(Cl)cc1)c1ccc(C(=O)c2ccc(-n3nc(C(F)(F)F)cc3-c3ccc(Cl)cc3)c(C(=O)O)c2)nc1 [18:7, 5-{5-[(4-Chlorophenyl)(methyl)amino]picolinoyl}-2-[5-(4-chlorophenyl)-3-trifluoromethylpyrazol-1-yl]benzoic acid] |
| 235 nM | Cc1cn(-c2ccc(C(=O)c3ccc(N(C)c4ccc(Cl)cc4)cn3)cc2C(=O)O)c(-c2ccccc2)n1 [19:1, 5-{5-[(4-Chlorophenyl)(methyl)amino]picolinoyl}-2-(4-methyl-2-phenylimidazol-1-yl)benzoic acid] |
| 486 nM | CN(c1ccc(Cl)cc1)c1ccc(C(=O)c2ccc(-n3ccnc3-c3ccccc3)c(C(=O)O)c2)nc1 [19:2, 5-{5-[(4-Chlorophenyl)(methyl)amino]picolinoyl}-2-(2-phenylimidazol-1-yl)benzoic acid] |
| 163 nM | CN(c1ccc(Cl)cc1)c1ccc(C(=O)c2ccc(-n3cccc3-c3cccc(Cl)c3)c(C(=O)O)c2)nc1 [20:1, 5-{5-[(4-Chlorophenyl)(methyl)amino]picolinoyl}-2-{2-(3-chlorophenyl)pyrrol-1-yl}benzoic acid] |
| 64 nM | CN(c1ccc(Cl)cc1)c1ccc(C(=O)c2ccc(-n3cccc3-c3ccccc3)c(C(=O)O)c2)nc1 [20:2, 5-{5-[(4-Chlorophenyl)(methyl)amino]picolinoyl}-2-(2-phenylpyrrol-1-yl)benzoic acid] |
| 138 nM | CN(c1ccc(Cl)cc1)c1ccc(C(=O)c2ccc(-c3ccccc3C(F)(F)F)c(C(=O)O)c2)nc1 [21:1, 4-{5-[(4-Chlorophenyl)methylamino]pyridine-2-carbonyl}-2′-trifluoromethyl-biphenyl-2-carboxylic acid] |
| 261 nM | CN(c1ccc(Cl)cc1)c1ccc(C(=O)c2ccc(-c3ccc(Cl)cc3Cl)c(C(=O)O)c2)nc1 [21:2, 2′,4′-Dichloro-4-{5-[(4-chlorophenyl)(methyl)amino]picolinoyl}biphenyl-2-carboxylic acid] |
| 349 nM | CN(c1ccc(Cl)cc1)c1ccc(C(=O)c2ccc(-c3ccccc3Cl)c(C(=O)O)c2)nc1 [21:3, 2′-Chloro-4-{5-[(4-chlorophenyl)(methyl)amino]picolinoyl}biphenyl-2-carboxylic acid] |
| 704 nM | CN(c1ccc(Cl)cc1)c1ccc(C(=O)c2ccc(-c3cccc(Cl)c3)c(C(=O)O)c2)nc1 [21:4, 3′-Chloro-4-{5-[(4-chlorophenyl)(methyl)amino]picolinoyl}biphenyl-2-carboxylic acid] |
| 384 nM | CN(c1ccc(Cl)cc1)c1ccc(C(=O)c2ccc(-c3ccccc3OCC3CC3)c(C(=O)O)c2)nc1 [21:5, 4-{5-[(4-Chlorophenyl)(methyl)amino]picolinoyl}-2′-(cyclopropylmethoxy)-biphenyl-2-carboxylic acid] |
| 217 nM | CN(c1ccc(Cl)cc1)c1ccc(C(=O)c2ccc(-c3ccccc3OC(F)(F)F)c(C(=O)O)c2)nc1 [21:6, 4-{5-[(4-chlorophenyl)(methyl)amino]picolinoyl}-2′-trifluoromethoxy-biphenyl-2-carboxylic acid] |
| 269 nM | CN(c1ccc(Cl)cc1)c1ccc(C(=O)c2ccc(-c3cc(Cl)ccc3Cl)c(C(=O)O)c2)nc1 [21:7, 2′,5′-Dichloro-4-{5-[(4-chlorophenyl)(methyl)amino]picolinoyl}biphenyl-2-carboxylic acid] |
| 244 nM | CN(c1ccc(Cl)cc1)c1ccc(C(=O)c2ccc(-c3ccccc3-c3ccccc3)c(C(=O)O)c2)nc1 [21:8, 4-{5-[(4-Chlorophenyl)(methyl)amino]picolinoyl}[1,1′;2′,1″]terphenyl-2-carboxylic acid] |
| 511 nM | CN(c1ccc(Cl)cc1)c1ccc(C(=O)c2ccc(-c3cccc(-c4ccccc4)c3)c(C(=O)O)c2)nc1 [21:9, 4-{5-[(4-Chlorophenyl)(methyl)amino]picolinoyl}[1,1′;2′,1″]terphenyl-2-carboxylic acid[1,1′;3′,1″]terphenyl-2-carboxylic acid] |
